Two compounds from paper PMC10622847 (2023) can be followed below.

For test [1], the system named is WT Eco riboswitch 36-mer, biotinylated (RNA, riboswitch) AUUGGGUUCCCUCACCCCAAUGGUUAAUCAAAAAGG
The experiment in a line: SPR kinetics (1:1 fit). Particulars: Na+ 100 mM, Mg2+ 3 mM; 10 mM Na-HEPES pH 7.5, 25 °C; apparent.

The subject of test [2] is Eco 30-mer (crystal construct) (RNA, riboswitch) UUGGGUUCCCUCACCCCAAUCAUAAAAAGG
The experiment in a line: X-ray crystallography (2.30 Å, Mn2+ SAD). The note with it: Mn2+ 5 mM, K+ 100 mM, Mg2+ 2 mM (well solution); Na-cacodylate pH 6.0, spermine, MPD, 20 °C.

In test [3] the test system is U7C (RNA, riboswitch) AUUGGGCUCCCUCACCCCAAUGGUUAAUCAAAAAGG
Put plainly: SPR steady state (one-site fit). Particulars: Na+ 100 mM, Mg2+ 3 mM; 10 mM Na-HEPES pH 7.5, 25 °C; preQ1 9.7 to 10,000 μM; text gives 4.2 ± 0.3 mM.

Test [4] concerns C15U (RNA, riboswitch) AUUGGGUUCCCUCAUCCCAAUGGUUAAUCAAAAAGG
The experiment in a line: SPR steady state (one-site fit). Particulars: Na+ 100 mM, Mg2+ 3 mM; 10 mM Na-HEPES pH 7.5, 25 °C; preQ1 9.7 to 10,000 μM.

Test [5] deals with Eco 34-mer (linker ΔGG) (RNA, riboswitch) AUUGGGUUCCCUCACCCCAAUUUAAUCAAAAAGG
Put plainly: ITC. The note with it: 10 μM RNA in cell, 100 μM preQ1 in syringe; buffer as in cited work.

Test [6] has as its system WT Eco riboswitch 36-mer (RNA, riboswitch) AUUGGGUUCCCUCACCCCAAUGGUUAAUCAAAAAGG
Put plainly: ITC. The note with it: 10 μM RNA in cell, 100 μM preQ1 in syringe; buffer as in cited work.

In test [7] the test system is Eco 33-mer (linker ΔGGU) (RNA, riboswitch) AUUGGGUUCCCUCACCCCAAUUAAUCAAAAAGG
The experiment in a line: ITC. Particulars: 10 μM RNA in cell, 100 μM preQ1 in syringe; buffer as in cited work.

Test [8] concerns Eco 30-mer (crystal construct) (RNA, riboswitch) UUGGGUUCCCUCACCCCAAUCAUAAAAAGG
The experiment in a line: ITC. The note with it: 10 μM RNA in cell, 100 μM preQ1 in syringe; buffer as in cited work.

The subject of test [9] is Eco 35-mer (linker ΔG) (RNA, riboswitch) AUUGGGUUCCCUCACCCCAAUGUUAAUCAAAAAGG
Put plainly: ITC. The note with it: 10 μM RNA in cell, 100 μM preQ1 in syringe; buffer as in cited work.

For test [10], the system named is G6DAP/C16U (RNA, riboswitch, 2,6-diaminopurine at 6) AUUGGGUUCCCUCACUCCAAUGGUUAAUCAAAAAGG
Put plainly: SPR steady state (one-site fit). Particulars: Na+ 100 mM, Mg2+ 3 mM; 10 mM Na-HEPES pH 7.5, 25 °C; preQ1 1.25 to 200 μM.

Regarding `N#Cc1c[nH]c2nc(N)[nH]c(=O)c12`, the KD in test [1] is reported as 15,970 ± 2260 nM.
For `NCc1c[nH]c2nc(N)[nH]c(=O)c12`, in [2], the binding result was “yes”. Further, the KD was 4,220,000 ± 33,000 nM in test [3]; 7,682,000 ± 206,000 nM in [4]; 120 ± 6 nM in test [1]; 14.0 ± 1.6 nM in test [5]; 57.9 ± 1.5 nM in test [6]; 30.2 ± 1.3 nM in [7]. Also, the KD in test [8] is on record as 51.9 ± 1.8 nM; in [9], 33.4 ± 1.9 nM; in test [10], 77,390 ± 5880 nM.
